Reference: patent US20120214802A1, “PYRROLIDINE COMPOUNDS WHICH INHIBIT BETA-SECRETASE ACTIVITY AND METHODS OF USE THEREOF” (priority 2009, published 2012)

How the values were obtained:
memapsin 2 [1] = biological target: memapsin 2 (Homo sapiens, UniProt P56817); assay: Inhibition of memapsin 2 beta-secretase activity (fluorogenic substrate FS-2); type: biochemical; details: pH 4, 37° C., read-out: M2 Ki
Method: Potency of compounds were determined by measurement of their inhibition of memapsin 2 activity toward a fluorescent substrate. Kinetic inhibition experiments were performed using the procedure as described in Ermolieff, et al. (Biochemistry 39:12450-12456 (2000), the teachings of which are incorporated hereby in their entirety). Briefly, assays were performed at pH 4, 37° C., by pre-incubation of memapsin 2 enzyme with compound for 20 minutes. Activity measurements were initiated by addition of a fluorogenic substrate FS-2 (Bachem Americas, Torrance, Calif.) MCA-SEVNLDAEFR-DNP (SEQ ID NO.: 2). The substrate was derived from 10 amino acids of the human amyloid precursor protein (APP), with the Swedish variant amino acids at the beta-secretase cleavage site. The terminal amino acid was modified from arginine to lysine to facilitate derivatization with a functional group for detection by autofluorescence. The amino acid sequence of the “core” peptide of the substrate is SEVNLDAEFK (SEQ ID NO.: 3). The amino terminus was derivatized with (7-methoxycoumarin-4-yl)acetyl (MCA), and the epsilon amine of the lysine side chain of the terminal residue (K in sequence SEVNLDAEFK (SEQ ID NO.: 3)) was derivatized with 2,4-dinitorphenyl (DNP).

memapsin 2 [2] = biological target: T1, memapsin 2 (Cricetulus griseus, UniProt G3IAK4); assay: Cellular Aβ IC50 determination (Aβ40 sandwich ELISA); type: cell-based, Chinese hamster; details: CHO cells over-expressing human APP695 with London and Swedish mutations, 24 h, read-out: M2 IC50
T1 construct: endogenous in cells; host or cells: Chinese hamster ovary cells over-expressing human APP695 (London + Swedish)
Method: The potency of compounds against memapsin 2 activity was determined in a cellular assay of Aβ production. […] Chinese hamster ovary cells that over-express human APP695 with the London and Swedish mutations were seeded in multi-well plates at 10% confluency. Compounds are dissolved in DMSO to concentrations near 1 mM, and diluted into culture media to a final concentration near 4 μM (final 0.4% DMSO). Compounds were diluted serially and applied to cells in multi-well plates 48 h after seeding. Incubation was continued in 5% CO2 at 37° C. for 24 h. Aliquots were removed and assayed for […] using a sandwich ELISA (BioSource International). Amount of Aβ40 over the range of concentration of compounds, relative to control incubations, were fit to a 4-parameter IC50 model.

[3] = Hepatic intrinsic clearance in liver microsomes; type: in vitro ADME; details: human, pH 7.4, human liver microsomes, in vitro clearance, read-out: HLM CL
Method: To 500 μl of 200 mM Na^+K^+phosphate buffer (pH 7.4), 100 μl of 1 mM EDTA solution was added followed by 100 μl of 2 mg protein/ml human liver microsomes. A 10 μl aliquot of test compound (20 mM stock in 50% acetonitrile) was diluted further with 40 μl of H2O (total assay volume […]. Assay mixture is incubated for 5 minutes at 37° C. The assay was initiated by addition of 250 μl of 4 mM NADPH solution. Incubation was continued at 37° C. Separate reaction mixtures were prepared for 0, 5, 10, 20, and 30 min durations. Individual reactions were halted by addition of 150 μl of 100% acetonitrile. Internal standard (10 μl of 100 ng/ml diazepam solution) was added. Concentration of the test compound in each separate reaction was measured using LC/MS/MS and a standard curve for the test compound according to standard procedures.
The hepatic intrinsic clearance in liver microsome was determined by the following procedure described by Davies and Morris (Davies, B. and Morris, T. (19930) Physiological parameters in laboratory animals and humans. Pharm Res. 10:1093-1095) detailing the relationship of in vitro clearance to physiological parameters in animals and human subjects.
The amount of compound remaining at each time point was expressed relative to the amount present in the initial (0 min) incubation. The relationship of relative amount vs. time was used to determine the half life of the compound in the microsome assay. The concentration independent rate constant, k1, was determined from rectangular hyperbolic fit:
where T is time (in minutes), from the relationship of relative amount vs. time. Alternatively, k1 was determined from a transform of the equation, where
Conversion to in vivo clearance was obtained from the relation (Davies and Morris, 1993):
where v=velocity of metabolism, [S] is the concentration of the compound, and volumes are expressed in mL.

CYP3A4 = biological target: T2, CYP3A4 (Homo sapiens, UniProt P08684); assay: CYP3A4 inhibition (midazolam metabolism in human liver microsomes); type: in vitro ADME; details: substrate midazolam, read-out: CYP 3A4Ki
T2 construct: host or cells: human liver microsomes
Method: To evaluate the drug-drug interaction potential for compounds, the potency to inhibit the major metabolic cytochrome CYP450 isoform 3A4 was assessed. The inhibition constant Ki was determined for inhibition of the metabolism of midazolam, a CYP3A4 substrate.
CYP3A4 Ki assays were performed following a recently published protocol with slight modifications (Di, L., Kerns, E. H., Li, S. Q., and Carter, G. T. (2007) Comparison of cytochrome P450 inhibition assays for drug discovery using human liver microsomes with LC-MS, rhCYP450 isozymes with fluorescence, and double cocktail with LC-MS. International Journal of Pharmaceutics 335: 1-11). The P450 inhibition assay was performed in 96-well plates at 37.2° C. in a shaking incubator. The compounds were diluted from 5 mM stocks in 100% DMSO and incubated at seven final concentrations from 0.078 to 10 μM (0.1% DMSO in each final incubation), with human liver microsomes (HLM) at a final protein concentration of 0.1 mg/mL protein and a substrate concentration ranging from 1.25 to 10 μM.
The assay was standardized for both phosphate buffer (100 mM, pH 7.4) and the NADPH regenerating system (MgCl2, 3.3 mM; G6P, 3.3 mM; G6PD, 1 U/ml; NADP+, 1.3 mM). Eight replicate control samples (0.1% DMSO, no compound) were prepared. Assays (200 μL) were set up by mixing HLM+substrate stock, 10 μL of test article in 2% DMSO, and the substrate before initiating the reaction with the addition of the regenerating system mixture. Reactions were quenched following incubation for 20, 30 and 40 minutes as described following.
After incubation for the specified time in a humidified shaking incubator, 20 μL of the reaction mixture was removed and the reactions were terminated by adding 200 μL of cold acetonitrile. Samples were centrifuged at 1000×g for 15 minutes in Solvinert filter plate. The receptor plate was dried via speed vacuum at 40° C. The sample was reconstituted with a reconstitution buffer composed of 10% acetonitrile, 10% DMSO, 80% H2O with an internal standard added at a concentration of 100 ng/ml. MS-Analysis was completed using LC-MS/MS. Formation of 1′-hydroxymidazolam was measured by monitoring a specific SRM (342>203) transition for the CYP3A4 metabolite.
Data were expressed as the relative quantity of midazolam metabolite relative to control incubations. Initial velocities were obtained by multiplying the relative quantity by the initial substrate concentration and dividing by the incubation duration. Data were transformed to inverse of inivital velocity and expressed vs. inhibitor concentration [I] for determination of Ki by the Dixon method (Dixon, M. (1953) Biochemical Journal 55: 170-171) using where intercept [I]=−Ki was determined at multiple substrate concentrations.

Sequence of memapsin 2 (Homo sapiens, UniProt P56817) (P56817 46-501): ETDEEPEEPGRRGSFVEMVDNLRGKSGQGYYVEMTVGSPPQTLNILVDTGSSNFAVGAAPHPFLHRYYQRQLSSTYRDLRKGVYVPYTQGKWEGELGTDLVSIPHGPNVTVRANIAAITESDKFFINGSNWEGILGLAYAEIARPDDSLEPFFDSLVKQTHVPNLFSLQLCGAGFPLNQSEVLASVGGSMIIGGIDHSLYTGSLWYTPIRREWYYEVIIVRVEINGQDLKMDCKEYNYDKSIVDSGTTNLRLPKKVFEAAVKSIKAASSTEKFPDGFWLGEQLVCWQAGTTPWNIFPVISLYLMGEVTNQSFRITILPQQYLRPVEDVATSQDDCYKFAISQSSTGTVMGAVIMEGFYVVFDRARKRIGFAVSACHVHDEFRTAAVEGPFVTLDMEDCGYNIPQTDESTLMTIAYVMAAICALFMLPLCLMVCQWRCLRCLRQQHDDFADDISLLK
T1 sequence (G3IAK4 22-501): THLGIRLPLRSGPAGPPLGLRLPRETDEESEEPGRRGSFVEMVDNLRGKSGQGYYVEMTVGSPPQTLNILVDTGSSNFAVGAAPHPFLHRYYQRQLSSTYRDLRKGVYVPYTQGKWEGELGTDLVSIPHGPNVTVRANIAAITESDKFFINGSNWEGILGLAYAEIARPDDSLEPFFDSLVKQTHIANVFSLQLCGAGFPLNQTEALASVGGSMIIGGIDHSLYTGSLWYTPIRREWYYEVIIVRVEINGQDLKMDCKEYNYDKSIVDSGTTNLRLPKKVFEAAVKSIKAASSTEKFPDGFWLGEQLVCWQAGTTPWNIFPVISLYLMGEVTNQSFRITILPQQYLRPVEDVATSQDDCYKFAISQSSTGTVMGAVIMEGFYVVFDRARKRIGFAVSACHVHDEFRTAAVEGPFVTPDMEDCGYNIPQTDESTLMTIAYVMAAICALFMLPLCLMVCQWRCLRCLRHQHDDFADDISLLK
T2 sequence (P08684 whole entry): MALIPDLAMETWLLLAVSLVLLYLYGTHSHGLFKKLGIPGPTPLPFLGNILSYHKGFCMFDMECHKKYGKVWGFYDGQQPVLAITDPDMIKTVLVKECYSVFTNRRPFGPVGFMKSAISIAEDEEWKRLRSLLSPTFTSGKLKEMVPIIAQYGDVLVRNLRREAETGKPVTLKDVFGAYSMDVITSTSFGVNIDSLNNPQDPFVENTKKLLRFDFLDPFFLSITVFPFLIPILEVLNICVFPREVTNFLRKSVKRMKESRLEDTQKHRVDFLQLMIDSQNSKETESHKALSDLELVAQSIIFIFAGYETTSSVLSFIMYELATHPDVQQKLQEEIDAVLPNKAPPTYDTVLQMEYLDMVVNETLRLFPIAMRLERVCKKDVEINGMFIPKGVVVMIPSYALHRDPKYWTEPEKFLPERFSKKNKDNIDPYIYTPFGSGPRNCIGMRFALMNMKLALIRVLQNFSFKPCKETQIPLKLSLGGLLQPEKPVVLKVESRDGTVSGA

Row | SMILES | Ki (memapsin 2 [1]) [µM] | IC50 (memapsin 2 [2]) [µM] | CLint scaled at 200 μM [3] [mL/min/kg] | Ki (CYP3A4) [µM]
1 | Cc1csc(CN(C)C(=O)c2cc(C(=O)N[C@@H](Cc3ccccc3)[C@H](O)[C@H]3CCCN3)cc(-c3cnco3)c2)n1 [1-12, N1-((1R,2S)-1-hydroxy-3-phenyl-1-((R)-pyrrolidin-2-yl)propan-2-yl)-N3-methyl-N3-((4-methylthiazol-2-yl)methyl)-5-(oxazol-5-yl)isophthalamide] | < 0.25 | > 1 | < 400 | 
2 | Cc1csc([C@H]2CCCN2C(=O)c2cc(C(=O)N[C@@H](Cc3ccccc3)[C@H](O)[C@H]3CCCN3)cc(-c3cnccn3)c2)n1 [1-20, N-((1R,2S)-1-hydroxy-3-phenyl-1-((R)-pyrrolidin-2-yl)propan-2-yl)-3-((R)-2-(4-methylthiazol-2-yl)pyrrolidine-1-carbonyl)-5-(pyrazin-2-yl)benzamide] | < 0.25 | < 0.5 |  | > 10
3 | Cc1coc([C@H]2CCCN2C(=O)c2cc(C(=O)N[C@@H](Cc3ccccc3)[C@H](O)[C@H]3CCCN3)cc(-n3cccc3)c2)n1 [1-26, N-((1R,2S)-1-hydroxy-3-phenyl-1-((R)-pyrrolidin-2-yl)propan-2-yl)-3-((R)-2-(4-methyloxazol-2-yl)pyrrolidine-1-carbonyl)-5-(1H-pyrrol-1-yl)benzamide] | < 0.25 |  |  | 5 to 10
4 | Cc1coc([C@H]2CCCN2C(=O)c2cc(C(=O)N[C@@H](Cc3ccccc3)[C@H](O)[C@H]3CCCN3)cc(N(C)S(C)(=O)=O)c2)n1 [1-28, N-((1R,2S)-1-hydroxy-3-phenyl-1-((R)-pyrrolidin-2-yl)propan-2-yl)-3-(N-methylmethylsulfonamido)-5-((R)-2-(4-methyloxazol-2-yl)pyrrolidine-1-carbonyl)benzamide] | < 0.25 |  |  | > 10
5 | Cc1csc([C@H]2CCCN2C(=O)c2cc(C(=O)N[C@@H](Cc3ccccc3)[C@H](O)[C@H]3CCCN3)cc(N3CCOCC3)c2)n1 [1-33, N-((1R,2S)-1-hydroxy-3-phenyl-1-((R)-pyrrolidin-2-yl)propan-2-yl)-3-((R)-2-(4-methylthiazol-2-yl)pyrrolidine-1-carbonyl)-5-morpholinobenzamide] | > 0.75 | > 1 |  | 5 to 10
6 | COc1cc(C(=O)N[C@@H](Cc2ccccc2)[C@H](O)[C@H]2CCCN2)cc(C(=O)N2CCC[C@@H]2c2nc(C)cs2)c1 [1-34, N-((1R,2S)-1-hydroxy-3-phenyl-1-((R)-pyrrolidin-2-yl)propan-2-yl)-3-methoxy-5-((R)-2-(4-methylthiazol-2-yl)pyrrolidine-1-carbonyl)benzamide] | < 0.25 | > 1 |  | 5 to 10
7 | Cc1csc([C@H]2CCCN2C(=O)c2cc(CF)cc(C(=O)N[C@@H](Cc3ccccc3)[C@H](O)[C@H]3C[C@@H](OCc4ccccc4)CN3)c2)n1 [1-36, N-((1R,2S)-1-((2R,4R)-4-(benzyloxy)pyrrolidin-2-yl)-1-hydroxy-3-phenylpropan-2-yl)-3-(fluoromethyl)-5-((R)-2-(4-methylthiazol-2-yl)pyrrolidine-1-carbonyl)benzamide] | < 0.25 | < 0.5 |  | > 10
8 | Cc1csc([C@H]2CCCN2C(=O)c2cc(C(=O)N[C@@H](Cc3ccccc3)[C@H](O)[C@H]3C[C@@H](OCc4ccccc4)CN3)cc(-c3ncco3)c2)n1 [1-52, N-((1R,2S)-1-((2R,4R)-4-(benzyloxy)pyrrolidin-2-yl)-1-hydroxy-3-phenylpropan-2-yl)-3-((R)-2-(4-methylthiazol-2-yl)pyrrolidine-1-carbonyl)-5-(oxazol-2-yl)benzamide] | < 0.25 | < 0.5 |  | 1 to 5
9 | Cc1cc(C(=O)N[C@@H](Cc2ccccc2)[C@H](O)CNCc2cncc(C(C)C)c2)cc(C(=O)N2CCC[C@@H]2c2nc(C)cs2)c1 [2-8, N-((2S,3R)-3-hydroxy-4-((5-isopropylpyridin-3-yl)methylamino)-1-phenylbutan-2-yl)-3-methyl-5-((R)-2-(4-methylthiazol-2-yl)pyrrolidine-1-carbonyl)benzamide, reference compound] | < 0.25 | < 0.5 |  | < 1
10 | Cc1csc(CN(C(=O)c2cccc(C(=O)N[C@@H](Cc3ccccc3)[C@H](O)CNCc3cccc(C(F)(F)F)c3)c2)C2CC2)n1 [2-9, N1-cyclopropyl-N3-((2S,3R)-3-hydroxy-1-phenyl-4-(3-(trifluoromethyl)benzylamino)butan-2-yl)-N1-((4-methylthiazol-2-yl)methyl)isophthalamide, reference compound] | < 0.25 | < 0.5 |  | < 1
11 | Cc1csc([C@H]2CCCN2C(=O)c2cccc(C(=O)N[C@@H](Cc3ccccc3)[C@H](O)CNCc3cccc(C(C)(C)C)c3)c2)n1 [2-10, N-((2S,3R)-4-(3-tert-butylbenzylamino)-3-hydroxy-1-phenylbutan-2-yl)-3-((R)-2-(4-methylthiazol-2-yl)pyrrolidine-1-carbonyl)benzamide, reference compound] | < 0.25 | < 0.5 |  | < 1
12 | Cc1cc(C(=O)N[C@@H](Cc2ccccc2)[C@H](O)CNCc2cncc(C(C)(C)C)c2)cc(C(=O)N2CCC[C@@H]2c2nc(C)co2)c1 [2-11, N-((2S,3R)-4-((5-tert-butylpyridin-3-yl)methylamino)-3-hydroxy-1-phenylbutan-2-yl)-3-methyl-5-((R)-2-(4-methyloxazol-2-yl)pyrrolidine-1-carbonyl)benzamide, reference compound] | < 0.25 | < 0.5 |  | < 1
